Experimental data as given in patent publication US20070128217A1 (priority 2003, published 2007).

Columns and labels:
[1] = test system: antibodies in sera from SARS patients (sera 1a, 1b, 2, 6, 37, 62, London, SARS-yellow, SARS-green); type: binding, human; parameters: Binding of serum 6 to linear peptides of protein X1 of SARS-CoV Urbani / Binding of serum 37 to linear peptides of protein X1 of SARS-CoV Urbani / Binding of serum 6 to looped/cyclic peptide (PEPSCAN-ELISA) / Binding of serum 37 to looped/cyclic peptide (PEPSCAN-ELISA) / Binding of serum 37 to looped/cyclic peptides of protein X1 of SARS-CoV Urbani / Binding of serum 6 to linear peptides of protein X2 / Binding of serum 37 to linear peptides of protein X2 / Binding of serum 37 to looped/cyclic peptides of protein X2 of SARS-CoV Urbani / Binding of serum 6 to linear peptides of protein M of SARS-CoV Urbani / Binding of serum 37 to linear peptides of protein M of SARS-CoV Urbani / Binding of serum 6 to looped/cyclic peptides of protein M of SARS-CoV Urbani / Binding of serum 37 to looped/cyclic peptides of protein M of SARS-CoV Urbani / Binding of serum 6 to linear peptides of protein X3 of SARS-CoV Urbani / Binding of serum 37 to linear peptides of protein X3 of SARS-CoV Urbani / Binding of serum 37 to looped/cyclic peptides of protein X3 of SARS-CoV Urbani / Binding of serum 6 to linear peptides of protein X4 of SARS-CoV Urbani / Binding of serum 37 to linear peptides of protein X4 of SARS-CoV Urbani / Binding of serum 37 to looped/cyclic peptides of protein X4 of SARS-CoV Urbani / Binding of serum 6 to linear peptides of protein X5 of SARS-CoV Urbani / Binding of serum 37 to linear peptides of protein X5 of SARS-CoV Urbani / Binding of serum 37 to looped/cyclic peptides of protein X5 of SARS-CoV Urbani / Binding of serum 6 to linear peptides of protein N of SARS-CoV Urbani / Binding of serum 37 to linear peptides of protein N of SARS-CoV Urbani / Binding of serum 6 to linear peptide (PEPSCAN-ELISA) / Binding of serum 1a to looped/cyclic peptides of protein N of SARS-CoV Urbani / Binding of serum 1b to looped/cyclic peptides of protein N of SARS-CoV Urbani / Binding of serum 2 to looped/cyclic peptides of protein N of SARS-CoV Urbani / Binding of serum 6 to looped/cyclic peptides of protein N of SARS-CoV Urbani / Binding of serum 37 to looped/cyclic peptides of protein N of SARS-CoV Urbani / Binding of serum 62 to looped/cyclic peptides of protein N of SARS-CoV Urbani / Binding of serum London to looped/cyclic peptides of protein N of SARS-CoV Urbani / Binding of serum SARS-green to looped/cyclic peptides of protein N of SARS-CoV Urbani: unit not given here
[2] = test system: rabbit serum obtained by immunizing a rabbit with the SARS-CoV strain Frankfurt 1; type: binding; parameters: Binding of a rabbit serum to linear peptides / Binding of a rabbit serum to looped peptides / Rabbit serum linear peptides / Rabbit serum looped peptides / Binding of a rabbit serum to linear peptides of protein N of SARS-CoV Urbani (Rabbit serum linear peptides) / Binding of a rabbit serum to looped/cyclic peptides of protein N of SARS-CoV Urbani (Rabbit serum looped peptides): unit not given here
[3] = test system: control sera (pooled serum of ten healthy LUMC hospital workers; commercial negative donor pooled serum from the Dutch bloodbank); type: binding, human; parameters: Binding of Control serum LUMC to linear peptides / Binding of Control serum Blood-bank to linear peptides / Binding of Control serum LUMC to looped peptides / Binding of Control Serum Blood-Bank to Looped peptides / Binding of Control serum LUMC to linear peptides of the protein M of SARS-CoV Urbani / Binding of Control serum Blood-bank to linear peptides of the protein M of SARS-CoV Urbani / Binding of Control serum LUMC to looped peptides of the protein M of SARS-CoV Urbani / Binding of Control Serum Blood-Bank to Looped peptides of the protein M of SARS-CoV Urbani: unit not given here

Row | Sequence | Binding of a rabbit serum to linear peptides [2] | Binding of a rabbit serum to looped peptides [2] | Binding of Control Serum Blood-Bank to Looped peptides [3] | Binding of Control serum Blood-bank to linear peptides [3] | Binding of Control serum LUMC to linear peptides [3] | Binding of Control serum LUMC to looped peptides [3] | Binding of serum 1a to linear peptides of protein X2 [1] | Binding of serum 1a to looped/cyclic peptides of protein X2 of SARS-CoV Urbani [1] | Binding of serum 1b to linear peptides of protein X2 [1] | Binding of serum 1b to looped/cyclic peptides of protein X2 of SARS-CoV Urbani [1] | Binding of serum 2 to linear peptides of protein X2 [1] | Binding of serum 2 to looped/cyclic peptides of protein X2 of SARS-CoV Urbani [1] | Binding of serum 6 to linear peptides of protein X2 [1] | Binding of serum 6 to looped/cyclic peptides of protein X2 of SARS-CoV Urbani [1] | Binding of serum 37 to linear peptides of protein X2 [1] | Binding of serum 37 to looped/cyclic peptides of protein X2 of SARS-CoV Urbani [1] | Binding of serum 62 to linear peptides of protein X2 [1] | Binding of serum 62 to looped/cyclic peptides of protein X2 of SARS-CoV Urbani [1] | Binding of serum London to linear peptides of protein X2 [1] | Binding of serum London to looped/cyclic peptides of protein X2 of SARS-CoV Urbani [1] | also measured
1 | HATATIPLQASLPFG | 0.1 | 0.5 | 0.7 | 0.8 | 0.6 | 0.7 |  |  |  |  |  |  |  |  |  |  |  |  |  |  | Binding of serum 1a to linear peptides of protein X1 of SARS-CoV Urbani [1]: 0.9; Binding of serum 1a to looped/cyclic peptide (PEPSCAN-ELISA) [1]: 0.8; Binding of serum 1b to linear peptides of protein X1 of SARS-CoV Urbani [1]: 0.8; Binding of serum 1b to looped/cyclic peptide (PEPSCAN-ELISA) [1]: 0.6; Binding of serum 2 to linear peptides of protein X1 of SARS-CoV Urbani [1]: 0.6; Binding of serum 2 to looped/cyclic peptide (PEPSCAN-ELISA) [1]: 0.5; Binding of serum 6 to linear peptides of protein X1 of SARS-CoV Urbani [1]: 0.6; Binding of serum 6 to looped/cyclic peptide (PEPSCAN-ELISA) [1]: 0.5; Binding of serum 37 to linear peptides of protein X1 of SARS-CoV Urbani [1]: 0.8; Binding of serum 37 to looped/cyclic peptide (PEPSCAN-ELISA) [1]: 0.6; Binding of serum 62 to linear peptides of protein X1 of SARS-CoV Urbani [1]: 0.7; Binding of serum 62 to looped/cyclic peptide (PEPSCAN-ELISA) [1]: 0.6; Binding of serum London to linear peptides of protein X1 of SARS-CoV Urbani [1]: 0.3; Binding of serum London to looped/cyclic peptide (PEPSCAN-ELISA) [1]: 0.2; Binding of serum SARS-green to linear peptides of protein X1 of SARS-CoV Urbani [1]: 0.2; Binding of serum SARS-green to looped/cyclic peptide (PEPSCAN-ELISA) [1]: 0.4; Binding of serum SARS-yellow to linear peptides of protein X1 of SARS-CoV Urbani [1]: 0.4; Binding of serum SARS-yellow to looped/cyclic peptide (PEPSCAN-ELISA) [1]: 0.4
2 | HFAFACADGTRHTYQ |  |  | 0.8 | 0.6 | 0.7 | 0.7 |  |  |  |  |  |  |  |  |  |  |  |  |  |  | Binding of serum 1a to linear peptides of protein X4 of SARS-CoV Urbani [1]: 0.7; Binding of serum 1a to looped/cyclic peptides of protein X4 of SARS-CoV Urbani [1]: 0.6; Binding of serum 1b to linear peptides of protein X4 of SARS-CoV Urbani [1]: 0.5; Binding of serum 1b to looped/cyclic peptides of protein X4 of SARS-CoV Urbani [1]: 0.5; Binding of serum 2 to linear peptides of protein X4 of SARS-CoV Urbani [1]: 0.4; Binding of serum 2 to looped/cyclic peptides of protein X4 of SARS-CoV Urbani [1]: 0.6; Binding of serum 6 to linear peptides of protein X4 of SARS-CoV Urbani [1]: 0.6; Binding of serum 6 to looped/cyclic peptides of protein X4 of SARS-CoV Urbani [1]: 0.6; Binding of serum 37 to linear peptides of protein X4 of SARS-CoV Urbani [1]: 0.6; Binding of serum 37 to looped/cyclic peptides of protein X4 of SARS-CoV Urbani [1]: 0.6; Binding of serum 62 to linear peptides of protein X4 of SARS-CoV Urbani [1]: 0.6; Binding of serum 62 to looped/cyclic peptides of protein X4 of SARS-CoV Urbani [1]: 0.5; Binding of serum London to linear peptides of protein X4 of SARS-CoV Urbani [1]: 0.6; Binding of serum London to looped/cyclic peptides of protein X4 of SARS-CoV Urbani [1]: 0.2; Binding of serum SARS-green to linear peptides of protein X4 of SARS-CoV Urbani [1]: 0.6; Binding of serum SARS-green to looped/cyclic peptides of protein X4 of SARS-CoV Urbani [1]: 0.2; Binding of serum SARS-yellow to linear peptides of protein X4 of SARS-CoV Urbani [1]: 0.1; Binding of serum SARS-yellow to looped/cyclic peptides of protein X4 of SARS-CoV Urbani [1]: 0.4; Rabbit serum linear peptides [2]: 0.4; Rabbit serum looped peptides [2]: 0.1
3 | HITVSQIQLSLLKVT | 0.7 | 0.4 | 0.6 | 0.6 | 0.8 | 0.5 | 0.6 | 0.5 | 0.5 | 0.5 | 0.5 | 0.5 | 0.5 | 0.4 | 0.7 | 0.5 | 0.5 | 0.6 | 0.4 | 0.8 | Binding of serum SARS-green to linear peptides of protein X2 [1]: 0.2; Binding of serum SARS-green to looped/cyclic peptides of protein X2 of SARS-CoV Urbani [1]: 0.4; Binding of serum SARS-yellow to linear peptides of protein X2 [1]: 0.8; Binding of serum SARS-yellow to looped/cyclic peptides of protein X2 of SARS-CoV Urbani [1]: 0.6
4 | HKLLQTLVLKMLHSS | 0.2 | 0.4 | 0.7 | 0.6 | 0.4 | 0.7 | 0.5 | 0.6 | 0.5 | 0.6 | 0.4 | 0.4 | 0.2 | 0.4 | 0.5 | 0.5 | 0.5 | 0.7 | 0.4 | 0.3 | Binding of serum SARS-green to linear peptides of protein X2 [1]: 0.4; Binding of serum SARS-green to looped/cyclic peptides of protein X2 of SARS-CoV Urbani [1]: 0.3; Binding of serum SARS-yellow to linear peptides of protein X2 [1]: 0.5; Binding of serum SARS-yellow to looped/cyclic peptides of protein X2 of SARS-CoV Urbani [1]: 0.5
